{
  "source": "patent US12070472B2",
  "about": "“Treatment of drug resistant proliferative diseases with telomerase mediated telomere altering compounds” (The Board of Regents of the University of Texas System, priority 2016, dated 2024)",
  "key": {"[1]": {"system": "BJ cells", "test": "Telomere dysfunction induced foci (TIF) assay in normal BJ cells", "format": "cell-based, human", "conditions": "10 μM, after 48 hours", "experimental": "TIFs were quantified using Imaris software.\nNormal BJ cells and […] BJ-hTERT cells were seeded in chamber slides. Following cell attachment, 6-thio-dG (10 μM) and 6-thio-G (10 μM) were added to fresh medium of each cell type. […] A control was used for each cell type as well, where DMSO was added to fresh medium of each cell type. […] These include almost all human cancer cells and certain human diseases involving acute and chronic inflammation."}, "[2]": {"system": "HCC2429", "test": "GI 50 determination, HCC2429", "format": "cell-based", "conditions": "Homo sapiens", "experimental": "(§1) Cells of each type listed in Table 2 were seeded in chamber slides."}, "[3]": {"system": "HCC4017", "test": "GI 50 determination, HCC4017", "format": "cell-based", "conditions": "Homo sapiens", "experimental": "as §1"}, "[4]": {"system": "H2009", "test": "GI 50 determination, H2009", "format": "cell-based", "conditions": "Homo sapiens, NCI-H2009", "experimental": "as §1"}, "[5]": {"system": "BJ fibroblast cells", "test": "Cell morphology and cell count after one week, BJ fibroblasts", "format": "cell-based, human", "conditions": "normal BJ fibroblasts; 3 μM twice during one week", "quoted_text": "Cancer HCT116 and normal BJ fibroblast cells were treated with 6-thio-dG (3 μM) and 6-thio-G (3 μM) twice during one week. Following one week of the treatment, cell morphology was monitored, and then the cells were collected and counted."}, "[6]": {"system": "HCT116 cells", "experimental": "(§2) For long-term cellular experiments, HCT116 (1,000 cells/cm^2) and BJ (10,000 cells/cm^2) cells were fed with 6-thio-dG (1, 3, 10 μM) containing medium every three days. The cells were counted and replated every week for 10-16 weeks. Additionally, HCT116 cells (1,000 cells/cm^2) were fed with 6-thio-G (1, 3, 10 μM) every three days and each week cells were counted, collected for TRF (Telomere Restriction Fragment) analysis and replated. HCT116 cells, following treatment with 10 μM 6-thio-dG for 12 weeks, were then treated with a combination of 10 μM 6-thio-dG and 3 μM GRN163L for 2-4 weeks."}, "[7]": {"system": "BJ fibroblast cells", "test": "Telomere length assay (TRF), BJ fibroblasts long-term culture", "format": "cell-based, human", "conditions": "10 weeks, compared to untreated control", "experimental": "as §2"}, "[8]": {"molecular_target": "T1, telomerase (Homo sapiens, UniProt O14746)", "T1 construct": "endogenous in cells; host or cells: HCT116 human colon cancer cells (lysate)", "T1 sequence (O14746 whole entry)": "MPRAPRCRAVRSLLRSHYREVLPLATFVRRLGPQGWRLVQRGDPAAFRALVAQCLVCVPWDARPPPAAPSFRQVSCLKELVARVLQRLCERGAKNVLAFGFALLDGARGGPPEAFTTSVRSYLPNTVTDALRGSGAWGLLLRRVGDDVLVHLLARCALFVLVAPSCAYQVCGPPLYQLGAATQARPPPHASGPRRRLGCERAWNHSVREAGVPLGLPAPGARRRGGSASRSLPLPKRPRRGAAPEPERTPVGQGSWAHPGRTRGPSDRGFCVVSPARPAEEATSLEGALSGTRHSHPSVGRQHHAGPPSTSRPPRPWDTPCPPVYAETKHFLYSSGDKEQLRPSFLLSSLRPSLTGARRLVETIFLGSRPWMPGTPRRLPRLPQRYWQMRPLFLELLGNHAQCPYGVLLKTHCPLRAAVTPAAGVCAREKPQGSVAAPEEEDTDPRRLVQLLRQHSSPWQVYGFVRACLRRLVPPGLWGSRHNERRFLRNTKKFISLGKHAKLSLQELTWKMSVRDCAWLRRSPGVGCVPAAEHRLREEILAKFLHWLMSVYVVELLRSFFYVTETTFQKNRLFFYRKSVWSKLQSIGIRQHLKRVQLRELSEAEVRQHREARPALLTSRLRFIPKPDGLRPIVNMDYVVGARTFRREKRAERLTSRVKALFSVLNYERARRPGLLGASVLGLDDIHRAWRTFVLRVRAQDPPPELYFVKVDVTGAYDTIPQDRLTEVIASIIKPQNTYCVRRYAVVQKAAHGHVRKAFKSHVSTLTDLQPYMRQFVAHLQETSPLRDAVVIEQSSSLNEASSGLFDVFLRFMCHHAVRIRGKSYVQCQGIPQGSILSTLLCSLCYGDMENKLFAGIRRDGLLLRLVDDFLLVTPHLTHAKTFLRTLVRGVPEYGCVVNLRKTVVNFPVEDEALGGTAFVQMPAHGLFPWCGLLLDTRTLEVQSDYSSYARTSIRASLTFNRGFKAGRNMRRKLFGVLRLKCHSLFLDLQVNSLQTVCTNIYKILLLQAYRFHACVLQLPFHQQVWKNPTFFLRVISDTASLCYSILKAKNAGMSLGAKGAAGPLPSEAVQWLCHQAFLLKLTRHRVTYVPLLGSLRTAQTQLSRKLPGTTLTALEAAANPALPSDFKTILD", "T1 sequence (O60832 whole entry partner)": "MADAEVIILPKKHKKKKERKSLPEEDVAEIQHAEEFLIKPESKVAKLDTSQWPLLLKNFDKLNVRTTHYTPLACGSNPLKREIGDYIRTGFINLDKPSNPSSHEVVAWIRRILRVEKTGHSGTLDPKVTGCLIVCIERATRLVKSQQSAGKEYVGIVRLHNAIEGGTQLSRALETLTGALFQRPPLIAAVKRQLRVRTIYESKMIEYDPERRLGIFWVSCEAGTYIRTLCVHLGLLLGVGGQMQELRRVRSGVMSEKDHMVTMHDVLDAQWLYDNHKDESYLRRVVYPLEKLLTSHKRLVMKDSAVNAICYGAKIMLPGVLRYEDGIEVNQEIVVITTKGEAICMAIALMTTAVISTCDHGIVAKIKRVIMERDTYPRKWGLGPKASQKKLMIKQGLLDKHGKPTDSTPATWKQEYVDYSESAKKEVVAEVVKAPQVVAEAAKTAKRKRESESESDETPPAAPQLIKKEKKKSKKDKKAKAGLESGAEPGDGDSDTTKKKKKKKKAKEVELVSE", "T1 sequence (Q9NY12 whole entry partner)": "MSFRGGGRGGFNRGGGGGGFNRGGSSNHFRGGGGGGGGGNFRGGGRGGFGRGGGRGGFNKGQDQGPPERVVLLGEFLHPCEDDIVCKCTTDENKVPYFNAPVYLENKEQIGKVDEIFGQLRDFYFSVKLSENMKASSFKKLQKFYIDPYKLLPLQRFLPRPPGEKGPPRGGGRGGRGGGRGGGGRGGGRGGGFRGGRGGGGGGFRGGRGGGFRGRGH", "T1 sequence (Q9NX24 whole entry partner)": "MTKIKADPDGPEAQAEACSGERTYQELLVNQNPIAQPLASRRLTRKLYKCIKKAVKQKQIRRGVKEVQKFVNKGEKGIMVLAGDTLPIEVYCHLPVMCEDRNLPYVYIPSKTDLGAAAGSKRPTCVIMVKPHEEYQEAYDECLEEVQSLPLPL", "T1 sequence (Q9NPE3 whole entry partner)": "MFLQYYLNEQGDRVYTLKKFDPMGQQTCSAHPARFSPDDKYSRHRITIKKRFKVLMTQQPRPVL", "T1 sequence (Q9BUR4 whole entry partner)": "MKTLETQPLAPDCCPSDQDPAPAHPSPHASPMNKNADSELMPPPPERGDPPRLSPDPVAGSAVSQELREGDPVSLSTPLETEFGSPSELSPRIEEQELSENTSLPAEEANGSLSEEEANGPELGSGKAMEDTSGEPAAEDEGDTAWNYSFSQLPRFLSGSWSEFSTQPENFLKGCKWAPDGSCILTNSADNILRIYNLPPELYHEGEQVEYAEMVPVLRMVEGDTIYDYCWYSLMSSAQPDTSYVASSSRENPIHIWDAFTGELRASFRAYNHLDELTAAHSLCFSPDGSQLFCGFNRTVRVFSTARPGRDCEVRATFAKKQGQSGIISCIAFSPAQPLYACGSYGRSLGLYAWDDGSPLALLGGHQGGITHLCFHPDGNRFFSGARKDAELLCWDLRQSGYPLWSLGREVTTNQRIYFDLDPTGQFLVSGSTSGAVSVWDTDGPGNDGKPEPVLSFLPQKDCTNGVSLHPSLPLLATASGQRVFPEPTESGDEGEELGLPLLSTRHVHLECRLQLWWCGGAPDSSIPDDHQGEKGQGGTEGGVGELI", "test": "Telomerase activity by TRAP assay in treated HCT116 cells", "format": "cell-based", "conditions": "HCT116 cells treated with 1 and 10 μM every 3 days for 12 weeks", "experimental": "Telomerase activity was measured by the TRAP assay (Telomeric Repeat Amplification Protocol as described in Shay J. W. and Bacchetti S., “A survey of telomerase activity in human cancer,” European Journal of Cancer 1997; 33:787-91.). Briefly, HCT116 cells were treated with 1 or 10 μM 6-thio-dG for 1-12 weeks. 1×10^5 cells were collected and lysed with ice-cold NP-40 lysis buffer (10 mM Tris-HCl pH 8.0, 1.0 mM MgCl2, 1 mM EDTA, 1% NP-40, 0.25 mM sodium deoxycholate, 10% glycerol, 150 mM NaCl, 5 mM β-mercaptoethanol) for 30 min. One microliter cellular lysate for 2500 cells was used for each reaction. Hela cells were used as a positive control and lysis buffer was used as a negative control. Samples were prepared and then the telomerase extension products were amplified using PCR (95° C. for 5 min to inactivate telomerase, then 95° C. for 30 sec, 52° C. for 30 sec, 72° C. for 30 sec; 24 cycles). Samples were run on a 10% non-denaturating acrylamide gel and visualized using a Typhoon PhosphorImager scanner system (Molecular Dynamics, GE Healthcare, Piscataway, NJ) that is capable of reading Cy5 fluorescence."}, "[9]": {"system": "A549 human lung cancer cells", "test": "Tumor growth in xenograft animal model with A549 cells", "format": "in vivo, mice", "conditions": "2.5 mg/kg every day", "experimental": "Doses of 2.5 mg/kg of 6-thio-dG and 2.5 mg/kg of 6-thio-G were injected every day into mice after tumor implantation and providing time for tumor initiation. DMSO injections were used for the control. The volume of the tumor was measured."}, "[10]": {"system": "HCT116 colon cancer cell line", "test": "CellTitreGlo survival, 7 days, HCT116", "format": "cell-based", "conditions": "Homo sapiens, HCT-116, 168 h", "experimental": "(§3) Four different cell lines were treated with nine different doses of 6-thio-dG for 7 days. HCT116 colon cancer cell line (FIG. 9A), HCEC1 normal colonic cell line (FIG. 9C), A549 non-small cell lung cancer cell line (FIG. 9B), and BJ normal fibroblast cell line (FIG. 9D) were each treated. Survival fraction was measured by CellTitreGlo luminescent cell viability assay (Promega)."}, "[11]": {"system": "HCEC1 normal colonic cell line", "test": "CellTitreGlo survival, 7 days, HCEC1", "format": "cell-based", "conditions": "Homo sapiens, 168 h", "experimental": "as §3"}, "[12]": {"system": "BJ normal fibroblast cell line", "test": "CellTitreGlo survival, 7 days, BJ", "format": "cell-based", "conditions": "Homo sapiens, 168 h", "experimental": "as §3"}, "[13]": {"system": "H1693", "test": "NSCLC panel sensitivity to 6-thio-dG, H1693", "format": "cell-based, human", "experimental": "(§4) A panel of NSCLC cell lines was tested for sensitivity to 6-thio-dG by performing a cell count after 1 week treatment. Briefly, cells were treated with 3 μM 6-thio-dG every three days for 1 week. Viable cells were counted at the end of treatment. Each 6-thiodG treated cell line was normalized to its DMSO treated control.\n(§5) Two isogenic pairs of NSCLC cell lines were studied for sensitization to 6-thio-dG treatment."}, "[14]": {"system": "H1819", "test": "NSCLC panel sensitivity to 6-thio-dG, H1819", "format": "cell-based, human", "experimental": "as §4, §5"}, "[15]": {"system": "H2073", "test": "NSCLC panel sensitivity to 6-thio-dG, H2073", "format": "cell-based", "conditions": "Homo sapiens, NCI-H2073", "excerpt": "as §5"}, "[16]": {"system": "H1993 cells", "test": "Sensitization by 5-azacytidine pretreatment, H1993", "format": "cell-based, human", "conditions": "Homo sapiens, NCI-H1993, 500 nM 5-azacytidine one week, then 6-thio-dG one week, read-out: IC50 of 6-thio-dG after 5-azacytidine pretreatment", "experimental": "All three resistant cell lines were pre-treated with 500 nM of the demethylating agent 5-azacytidine for one week. Following the 5-azacytidine pretreatment, each resistant cell line was treated with 9 different concentrations (0.01 to 1000 micromolar) of 6-thio-dG for one week. Cells were then evaluation for growth/death."}, "[17]": {"system": "HCC4017 paclitaxel/carboplatin resistant cell line", "test": "6-thio-dG on HCC4017 paclitaxel/carboplatin resistant line", "format": "cell-based, human", "conditions": "1, 3, 10 μM", "experimental": "(§6) The resulting resistant lines and their parents were tested for the effect of 6-thio-dG at 1, 3, and 10 μM concentrations."}, "[18]": {"system": "H1693", "test": "6-thio-dG on H1693 parental and paclitaxel/carboplatin resistant lines", "format": "cell-based, human", "conditions": "1, 3, 10 μM", "experimental": "as §6"}, "[19]": {"system": "HCT116 cells", "conditions": "3 μM", "quoted_text": "The TIF assay is based on the co-localization detection of DNA damage by an antibody against DNA damage markers such as gamma-H2AX and telomeres by the telomeric protein TRF2. Briefly, HCT116 cells were plated in 4-well chamber slides and after the cells attached to the surface, either 3 μM 6-thio-dG or 3 μM 6-thio-G was added to the medium at different time points (0, 30 min, 12 h, 24 h, 48 h, 72 h). Slides were rinsed once with PBS and fixed in 4% paraformaldehyde in PBS for 10 min. Then, cells were washed twice with PBS and permeabilized in 0.5% Nonidet-P40 in PBS, blocked with 0.5% Bovine Serum Albumin (BSA) and 0.2% fish gelatin in PBS for 30 min. gamma-H2AX (mouse) (Millipore, Billerica, MA) was diluted 1:1000 and TRF2 (rabbit) (Abcam, Cambridge, MA) was diluted 1:200 in blocking solution and this primary Ab mixture was incubated on cells for 2 h. After three washes with PBST (1×PBS in 0.1% Triton) and 3 washes with PBS, cells were incubated with Alexaflour 488 conjugated goat anti rabbit (1:500) (Invitrogen, Grand Island, NY) and Alexaflour 568 conjugated goat anti mouse (1:500) (Invitrogen) for 40 min, then washed six times with PBS. After drying, the slides were mounted with Vectashield mounting medium with DAPI (Vector Laboratories, Burlingame, CA). […] TIFs were quantified using Imaris software. […]"}},
  "data": [
    {"smiles": "Nc1nc2c(ncn2[C@H]2C[C@H](O)[C@@H](CO)O2)c(=S)[nH]1", "note": "[6-thio-dG, 6-thio-2′-deoxyguanosine]", "values": [
      {"measurement": ">4 TIFs per nucleus background subtracted", "setting": "[1]", "result": 2},
      {"measurement": "GI50", "setting": "[2]", "result": 0.6, "unit": "µM"},
      {"measurement": "GI50", "setting": "[3]", "result": 0.9, "unit": "µM"},
      {"measurement": "GI50", "setting": "[4]", "result": 2.6, "unit": "µM"},
      {"measurement": "morphology and cell counts", "setting": "[5]", "result": "only slightly affected"},
      {"measurement": "telomere shortening (TRF)", "setting": "[6]; 1 μM or 10 μM every 3 days, 12 weeks", "result": "dramatic telomere shortening"},
      {"measurement": "telomere length on continued treatment (TRF)", "setting": "[6]; 10 μM 6-thio-dG for 12 weeks, continued to 16 weeks", "result": "exhibited stablized telomeres"},
      {"measurement": "acquisition of resistance (cell growth)", "setting": "[6]; 1, 3, 10 μM, weekly over 10 weeks", "result": "begin to acquire resistance to the treatment by the third week"},
      {"measurement": "telomere length after drug removal (TRF)", "setting": "[6]; 12 weeks 6-thio-dG, then normal medium without drug 2-4 weeks", "result": "remained about the same as after 12 week of 6-thio-dG treatment"},
      {"measurement": "telomere shortening (TRF)", "setting": "[7]", "result": "did not show enhanced telomere shortening"},
      {"measurement": "inhibition of telomerase activity (TRAP)", "setting": "[8]", "result": "no inhibition of telomerase activity was observed"},
      {"measurement": "histology of residual tumors", "setting": "[9]", "result": "mostly fibrotic and often associated with apoptotic and inflammatory cells"},
      {"measurement": "rate of tumor growth (tumor volume)", "setting": "[9]; compared to control and 6-thio-G", "result": "rate of tumor growth was less"},
      {"measurement": "IC50", "setting": "[10]", "result": 1.1, "unit": "µM"},
      {"measurement": "IC50", "setting": "[11]", "result": "> 100", "unit": "µM"},
      {"measurement": "IC50", "setting": "[12]", "result": "> 100", "unit": "µM"},
      {"measurement": "survival rate", "setting": "[13]; H1693, 3 μM every three days for 1 week, normalized to DMSO control", "result": "greater than 50%"},
      {"measurement": "IC50", "setting": "[13]; Homo sapiens, NCI-H1693", "result": "> 100", "unit": "µM"},
      {"measurement": "survival rate", "setting": "[14]; H1819, 3 μM every three days for 1 week, normalized to DMSO control", "result": "greater than 50%"},
      {"measurement": "IC50", "setting": "[14]; Homo sapiens, NCI-H1819", "result": "> 100", "unit": "µM"},
      {"measurement": "IC50", "setting": "[15]", "result": "> 0.7", "unit": "µM"},
      {"measurement": "IC50", "setting": "[16]", "result": "~4.1", "unit": "µM"},
      {"measurement": "sensitivity", "setting": "[17]", "result": "still sensitive to 6-thio-dG"},
      {"measurement": "sensitivity", "setting": "[18]", "result": "resistant to 6-thio-dG"},
      {"measurement": "increase in telomeric DNA damage as compared to 6-thio-G", "setting": "[19]; after 72 h", "result": 2.8, "unit": "fold"},
      {"measurement": "genomic DNA damage", "setting": "[19]; compared to 6-thio-G", "result": "overall increase in genomic DNA damage"}
    ]}
  ]
}
